Usually pIC50 stands for the negative decadic logarithm of the IC50, by convention in mol/L.

pIC50: −log10 of the molar value.

Drawing on ChEMBL document CHEMBL4346762, “Design, synthesis and anticancer activity of constrained sphingolipid-phenoxazine/phenothiazine hybrid constructs targeting protein phosphatase 2A” (Bioorg Med Chem Lett, 2019), this text covers IC50, Activity and Ratio IC50 for ten compounds.

A short description of experiment [1]: Inhibition of protein phosphatase 2A in mouse FL5.12 cells assessed as reduction in cell viability incubated for 48 hrs by propidium iodide staining based flow cytometric analysis. To be noted: FL5.12, 48 h. In general terms: In flow cytometry, cells or beads pass a laser one at a time.
Experiment [2] concerns FL5.12. Description: Inhibition of protein phosphatase 2A in mouse FL5.12 cells assessed as induction of surface nutrient transporter loss by measuring downregulation of CD98 expression level at 10 uM preincubated with PP2A inhibitor calyculin A for 60 mins followed by compound addition and measured after 2 hrs by flow cytometric analysis relative to control. In kind it is cell-based. Set-up: scale not given: the % may be the effect or the level left.

The test system of experiment [3] is FL5.12. As to the kind of experiment: Induction of vacuolation in mouse FL5.12 cells assessed as vacuolation score at 2.5 uM preincubated with PP2A inhibitor calyculin A for 60 mins followed by compound addition and measured after 2 hrs by fluorescence microscopic method. In kind it is functional.
In experiment [4] the test system is FL5.12. Description: Inhibition of protein phosphatase 2A in mouse FL5.12 cells assessed as induction of surface nutrient transporter loss by measuring downregulation of CD98 expression level at 2.5 uM preincubated with PP2A inhibitor calyculin A for 60 mins followed by compound addition and measured after 2 hrs by flow cytometric analysis relative to control. In kind it is cell-based. Further details: scale not given: the % may be the effect or the level left.

Experiment [5] relates to FL5.12. Description: Induction of vacuolation in mouse FL5.12 cells assessed as vacuolation score at 10 uM preincubated with PP2A inhibitor calyculin A for 60 mins followed by compound addition and measured after 2 hrs by fluorescence microscopic method. It is filed as functional.
Experiment [6] relates to FL5.12. Description: Induction of vacuolation in mouse FL5.12 cells assessed as vacuolation score at 40 uM preincubated with PP2A inhibitor calyculin A for 60 mins followed by compound addition and measured after 2 hrs by fluorescence microscopic method. In kind it is functional.
The subject of experiment [7] is FL5.12. As to the kind of experiment: Inhibition of protein phosphatase 2A in mouse FL5.12 cells assessed as induction of surface nutrient transporter loss by measuring downregulation of CD98 expression level at 40 uM preincubated with PP2A inhibitor calyculin A for 60 mins followed by compound addition and measured after 2 hrs by flow cytometric analysis relative to control. In kind it is cell-based. Further details: scale not given: the % may be the effect or the level left.

The species named for another experiment is Mus musculus. Description: Ratio of IC50 for SH-BC-893 to IC50 for test compound for inhibition of protein phosphatase 2A in mouse FL5.12 cells assessed as reduction in cell viability incubated for 48 hrs by propidium iodide staining based flow cytometric analysis.

With `CCCCCCCCc1ccc([C@H]2CCN[C@@H]2COCCCC(O)c2cnc(OC)nc2OC)cc1.Cl` (some centres not stated), the pIC50 in experiment [1] is 5.57. Also, the Activity in the experiment with FL5.12 [2] was determined as 60%; in the experiment with FL5.12 [3] it was 8; in the experiment on FL5.12 [4], 10%; in the experiment on FL5.12 [5] it was 15.

In the case of `CCCCCCCCc1ccc([C@H]2CCN[C@@H]2COCCCCCN2c3ccccc3Sc3ccccc32)cc1.Cl`, in experiment [1], the negative-log IC50 (pIC50) was 5.12. In addition, the Activity was -8% with FL5.12 [2], 42 in the experiment on FL5.12 [6], 29% in the experiment on FL5.12 [7] and 18 with FL5.12 [5].

With `CCCCCCCCc1ccc([C@H]2CCN[C@@H]2COCCCC(O)c2cccnc2)cc1.Cl` (some centres not stated), in experiment [1], the pIC50 is 5.62. Also, the Activity was found to be 51% with FL5.12 [2], 8 in the experiment with FL5.12 [3], 24% in the experiment with FL5.12 [4] and 17 in the experiment on FL5.12 [5].

On to `CCCCCCCCc1ccc([C@H]2CCN[C@@H]2COCCCCCN2c3ccccc3Oc3ccccc32)cc1.Cl`, for which the pIC50 in experiment [1] was 5.07. Also, the Activity with FL5.12 [2] was -3%; with FL5.12 [6], 66; in the experiment with FL5.12 [7] it was 38%; with FL5.12 [5], 16.

With `CCCCCCCCc1ccc([C@H]2CCN[C@@H]2COCCCN2c3ccccc3Oc3ccccc32)cc1.Cl`, the pIC50 in experiment [1] is 5.34. Also, the Activity in the experiment on FL5.12 [2] was determined as 27%; in the experiment on FL5.12 [3] it was 2; in the experiment with FL5.12 [4] it was 4%; with FL5.12 [5] it was 23. In the experiment filed under Mus musculus, the Ratio IC50 lay within 2 to 3.

As to `CCCCCCCCc1ccc([C@H]2CCN[C@@H]2COCCCCc2cccnc2)cc1.Cl`, the pIC50 in experiment [1] is 5.68. Moreover, the Activity in the experiment with FL5.12 [2] was 64%; with FL5.12 [3], 12; in the experiment on FL5.12 [4], 40%; with FL5.12 [5] it was 11.

In the case of `O=S(=O)(N[C@@H]1CCC[C@H](N2c3ccccc3Oc3ccccc32)[C@H]1O)c1ccc(OC(F)(F)F)cc1`, the pIC50 in experiment [1] was 4.82. Further, the Activity in the experiment with FL5.12 [2] came out at 7%; in the experiment with FL5.12 [6], 11; with FL5.12 [7], 31%; with FL5.12 [5], 0.

In the case of `CCCCCCCCc1ccc([C@H]2CCN[C@@H]2CO)cc1.Cl`, the pIC50 in experiment [1] was 5.74. Also, the Activity amounted to 69% with FL5.12 [2], 46 with FL5.12 [3], 32% with FL5.12 [4] and 60 with FL5.12 [5].

On to `CCCCCCCCc1ccc([C@H]2CCN[C@@H]2COCCCCN2c3ccccc3Oc3ccccc32)cc1.Cl`, for which the pIC50 in experiment [1] was 5.24. Further, the Activity in the experiment with FL5.12 [2] was 15%; in the experiment on FL5.12 [3], 7; in the experiment with FL5.12 [4] it was 5%; in the experiment with FL5.12 [5], 15. For the same compound, the Ratio IC50 in the experiment filed under Mus musculus was in the range of 2 to 3.

Take `OCCN1CCN(CCCN2c3ccccc3Sc3ccc(Cl)cc32)CC1` [PERPHENAZINE]: in experiment [1], the negative-log IC50 (pIC50) was 5.32. Also, the Activity in the experiment on FL5.12 [2] is 58%; in the experiment with FL5.12 [3] it was 1; in the experiment on FL5.12 [4], 19%; with FL5.12 [5], 3.
